Experimental data taken from ChEMBL document CHEMBL6134788, “Development of naphthalimide hydrazide derivatives as potent antibacterial agents against carbapenem-resistant A. baumannii” (RSC Med Chem, 2024).
Values after ≈ are worked out from the molar mass of the structure shown. Active and inactive are the calls of the source. No cut-off for these calls is given here.

Assays:
Acinetobacter baumannii [1] = test: Antibacterial activity against carbapenem-resistant Acinetobacter baumannii BAA 1605 assessed as inhibition of bacterial growth incubated for 16 to 18 hrs by CLSI protocol based method; assay type: functional; details: time 16-18 hrs, read-out: MIC100
Pseudomonas aeruginosa = test: Antibacterial activity against Pseudomonas aeruginosa ATCC 27853 assessed as inhibition of bacterial growth incubated for 16 to 18 hrs by CLSI protocol based method; assay type: functional; details: time 16-18 hrs, read-out: MIC100
Acinetobacter baumannii [2] = test: Antibacterial activity against multi-drug resistant Acinetobacter baumannii H72721 assessed as inhibition of bacterial growth incubated for 16 to 18 hrs by CLSI protocol based method; assay type: functional; details: time 16-18 hrs, read-out: MIC100
Acinetobacter baumannii [3] = test: Antibacterial activity against multi-drug resistant Acinetobacter baumannii clinical isolate 1 assessed as inhibition of bacterial growth incubated for 16 to 18 hrs by CLSI protocol based method; assay type: functional; details: time 16-18 hrs, read-out: MIC100
Acinetobacter baumannii [4] = test: Antibacterial activity against multi-drug resistant Acinetobacter baumannii clinical isolate 2 assessed as inhibition of bacterial growth incubated for 16 to 18 hrs by CLSI protocol based method; assay type: functional; details: time 16-18 hrs, read-out: MIC100
Acinetobacter baumannii [5] = test: Antibacterial activity against multi-drug resistant Acinetobacter baumannii clinical isolate 4 assessed as inhibition of bacterial growth incubated for 16 to 18 hrs by CLSI protocol based method; assay type: functional; details: time 16-18 hrs, read-out: MIC100
Acinetobacter baumannii [6] = test: Antibacterial activity against multi-drug resistant Acinetobacter baumannii clinical isolate 6 assessed as inhibition of bacterial growth incubated for 16 to 18 hrs by CLSI protocol based method; assay type: functional; details: time 16-18 hrs, read-out: MIC100
Acinetobacter baumannii [7] = test: Antibacterial activity against multi-drug resistant Acinetobacter baumannii clinical isolate 7 assessed as inhibition of bacterial growth incubated for 16 to 18 hrs by CLSI protocol based method; assay type: functional; details: time 16-18 hrs, read-out: MIC100
Acinetobacter baumannii [8] = test: Antibacterial activity against multi-drug resistant Acinetobacter baumannii clinical isolate 10 assessed as inhibition of bacterial growth incubated for 16 to 18 hrs by CLSI protocol based method; assay type: functional; details: time 16-18 hrs, read-out: MIC100
Acinetobacter baumannii [9] = test: Antibacterial activity against multi-drug resistant Acinetobacter baumannii NR-17777 assessed as inhibition of bacterial growth incubated for 16 to 18 hrs by CLSI protocol based method; assay type: functional; details: time 16-18 hrs, read-out: MIC100
Acinetobacter baumannii [10] = test: Antibacterial activity against multi-drug resistant Acinetobacter baumannii 5-109 assessed as inhibition of bacterial growth incubated for 16 to 18 hrs by CLSI protocol based method; assay type: functional; details: time 16-18 hrs, read-out: MIC100
Acinetobacter baumannii [11] = test: Antibacterial activity against multi-drug resistant Acinetobacter baumannii 5-189 assessed as inhibition of bacterial growth incubated for 16 to 18 hrs by CLSI protocol based method; assay type: functional; details: time 16-18 hrs, read-out: MIC100
Acinetobacter baumannii [12] = test: Antibacterial activity against multi-drug resistant Acinetobacter baumannii Naval-17 assessed as inhibition of bacterial growth incubated for 16 to 18 hrs by CLSI protocol based method; assay type: functional; details: time 16-18 hrs, read-out: MIC100
Acinetobacter baumannii [13] = test: Synergistic antibacterial activity against carbapenem-resistant Acinetobacter baumannii BAA 1605 assessed as inhibition of bacterial growth incubated 24 hrs in presence of tobramycin by checkerboard method; assay type: functional
Acinetobacter baumannii [14] = test: Antibacterial activity against carbapenem-resistant Acinetobacter baumannii BAA 1605 assessed as inhibition of bacterial growth by measuring amikacin MIC incubated 24 hrs by checkerboard method; assay type: functional
Acinetobacter baumannii [15] = test: Antibacterial activity against carbapenem-resistant Acinetobacter baumannii BAA 1605 assessed as inhibition of bacterial growth by measuring rifampicin MIC incubated 24 hrs by checkerboard method; assay type: functional
Acinetobacter baumannii [16] = test: Antibacterial activity against carbapenem-resistant Acinetobacter baumannii BAA 1605 assessed as inhibition of bacterial growth by measuring fractional inhibitory concentration incubated 24 hrs in presence of rifampicin by checkerboard method; assay type: functional
Acinetobacter baumannii [17] = test: Antibacterial activity against carbapenem-resistant Acinetobacter baumannii BAA 1605 assessed as rifampicin MIC by measuring fractional inhibitory concentration incubated 24 hrs by checkerboard method relative to rifampicin alone; assay type: functional
Acinetobacter baumannii [18] = test: Antibacterial activity against carbapenem-resistant Acinetobacter baumannii BAA 1605 assessed as tobramycin MIC by measuring fractional inhibitory concentration incubated 24 hrs by checkerboard method relative to tobramycin alone; assay type: functional
Acinetobacter baumannii [19] = test: Antibacterial activity against carbapenem-resistant Acinetobacter baumannii BAA 1605 assessed as reduction in bacterial growth incubated for 24 hrs by time-kill kinetics analysis; assay type: functional, organism-based
Acinetobacter baumannii [20] = test: Synergistic antibacterial activity against carbapenem-resistant Acinetobacter baumannii BAA 1605 assessed as reduction in bacterial growth measured within 24 hrs in presence of tobramycin by time-kill kinetics analysis; assay type: functional, organism-based

O=C(CCN1C(=O)c2cccc3cccc(c23)C1=O)NNc1ccc(Br)cc1
MIC (Acinetobacter baumannii [1]): 0.5 µg/mL (≈ 1.14 µM)
MIC (Pseudomonas aeruginosa): > 64 µg/mL
MIC (Acinetobacter baumannii [2]): 0.5 µg/mL (≈ 1.14 µM)
MIC (Acinetobacter baumannii [3]): 0.25 µg/mL (≈ 0.57 µM)
MIC (Acinetobacter baumannii [4]): 0.5 µg/mL (≈ 1.14 µM)
MIC (Acinetobacter baumannii [5]): 0.5 µg/mL (≈ 1.14 µM)
MIC (Acinetobacter baumannii [6]): 0.5 µg/mL (≈ 1.14 µM)
MIC (Acinetobacter baumannii [7]): 0.5 µg/mL (≈ 1.14 µM)
MIC (Acinetobacter baumannii [8]): 0.5 µg/mL (≈ 1.14 µM)
MIC (Acinetobacter baumannii [9]): 0.5 µg/mL (≈ 1.14 µM)
MIC (Acinetobacter baumannii [10]): 0.5 µg/mL (≈ 1.14 µM)
MIC (Acinetobacter baumannii [11]): 0.5 µg/mL (≈ 1.14 µM)
MIC (Acinetobacter baumannii [12]): 1 µg/mL (≈ 2.28 µM)
MIC (Acinetobacter baumannii [13]): 0.25 µg/mL
MIC (Acinetobacter baumannii [14]): 2 µg/mL
MIC (Acinetobacter baumannii [15]): 2 µg/mL
FIC (Acinetobacter baumannii [16]): 0.5
FIC (Acinetobacter baumannii [17]): 0.5
FIC (Acinetobacter baumannii [18]): 0.25
Activity (Acinetobacter baumannii [19]): inactive
Activity (Acinetobacter baumannii [20]): Active
